Laboratory results as given in patent US9078831B2, “Cosmetic treatment method using a compound that can be condensed in situ and a UV-radiation-filtering agent” (L'Oreal, priority 2009, dated 2015).

Tests used:
[1] = Screening effectiveness (SPF) in vivo; parameters: species or system volunteers; settings: spread over a deposited layer of APTES versus bare skin; 2 mg per cm^2; erythema read 24 h later
Procedure: (§1) The screening effectiveness and the persistence towards water of a solution of UV screening agents, applied to a condensed deposited layer of APTES, in comparison with a solution deposited on bare skin, are evaluated and compared at different concentrations. The UV screening agents tested are Phenylbenzimidazole Sulfonic Acid and Terephthalylidene Dicamphor Sulfonic Acid.
The studies were carried out on 5 volunteers of phototype I, II or III. The studies targeted exclusively at determining the screening effectiveness took place over 2 consecutive days, when 3 days were necessary for measurements of persistence towards water. On the first day, the screening formulation is applied at 2 mg per cm^2 on bare skin or on a condensed deposited layer of APTES. The volunteers are subsequently exposed to ultraviolet radiation. Erythema is read and the SPF is defined 24 h later. In the case of a test of persistence towards water, the same solutions or pairs of solutions are applied on the second day. The volunteers are immersed in 2 consecutive baths of water, each of 20 minutes, Wore being again exposed to UV radiation. The post-bath SPF is determined during the third test day. […]
The SPF values of the 8% and 12% solutions of UV screening agents are measured, which measurements are taken after spreading over bare skin or over deposited layers more or less concentrated in APTES. […]

[2] = Persistence towards water (water resistance, SPF before and after baths) in vivo; parameters: species or system volunteers; settings: APTES layer under Example 2, in words
Procedure: as §1
The studies were carried out on 5 volunteers of phototype I, II or III. The studies targeted exclusively at determining the screening effectiveness took place over 2 consecutive days, when 3 days were necessary for measurements of persistence towards water. On the first day, the screening formulation is applied at 2 mg per cm^2 on bare skin or on a condensed deposited layer of APTES. The volunteers are subsequently exposed to ultraviolet radiation. Erythema is read and the SPF is defined 24 h later. In the case of a test of persistence towards water, the same solutions or pairs of solutions are applied on the second day. The volunteers are immersed in 2 consecutive baths of water, each of 20 minutes, Wore being again exposed to UV radiation. The post-bath SPF is determined during the third test day. The water resistance (WR) is defined as: […]
The water resistance of the 12% solution of UV screening agents was also evaluated in vivo, with and without APTES. […]

CCO[Si](CCCN)(OCC)OCC [APTES, γ-aminopropyltriethoxysilane]
SPF in vivo [1]: SPF increases in proportion as the amount of APTES spread beforehand over the skin increases | resistance to water of the UV screening agents [2]: significantly increase the resistance to water
